Measured values published in EPA's ToxRefDB 2.

Assays:
mouse [1] = details: Sub-acute repeat dose toxicity, cd1, Oral, Gavage/Intubation, dose end: 4 week, group: systemic
rabbit [2] = details: Prenatal developmental toxicity study; new zealand white; Oral; Gavage/Intubation; dose end: 19 GD; group: maternal; systemic / in life observation / body weight / body weight gain + systemic / in life observation / clinical signs / anogenital staining + …
dog [3] = details: Sub-acute repeat dose toxicity; beagle; Oral; Capsule; dose end: 1 month; group: systemic; systemic / clinical chemistry / glucose / glucose + systemic / in life observation / body weight / body weight + systemic / in life …
mouse [4] = details: Subchronic oral toxicity in rodents, cd1, Gavage/Intubation, dose end: 13 week, group: systemic, systemic / clinical chemistry / alanine aminotransferase (alt/sgpt) / alanine aminotransferase (alt/sgpt) + systemic / clinical chemistry / …
rat [5] = details: Prenatal developmental toxicity study, sprague dawley, Oral, Gavage/Intubation, dose end: 17 GD
rabbit [6] = details: Prenatal developmental toxicity study, new zealand white, Oral, Gavage/Intubation, dose end: 19 GD
dog [7] = details: Chronic toxicity; beagle; Oral; Capsule; dose end: 1 year; group: systemic; systemic / in life observation / body weight / body weight + systemic / in life observation / clinical signs / vomitting + systemic / in …
dog [8] = details: Chronic toxicity, beagle, Oral, Gavage/Intubation, dose end: 274 day, group: systemic
mouse [9] = details: Sub-acute repeat dose toxicity, Oral, Gavage/Intubation, dose end: 30 day, group: systemic
rat [10] = details: Sub-acute repeat dose toxicity; Oral; Gavage/Intubation; dose end: 7 day; group: systemic; systemic / pathology microscopic / kidney / hyaline droplet + systemic / pathology microscopic / kidney / regeneration + systemic / …
rat [11] = details: Sub-acute repeat dose toxicity, Oral, Gavage/Intubation, dose end: 7 day, group: systemic
dog [12] = details: Sub-acute repeat dose toxicity, beagle, Oral, Gavage/Intubation, dose end: 7 day, group: systemic
rabbit [13] = details: Sub-acute repeat dose toxicity, Oral, Gavage/Intubation, dose end: 7 day, group: systemic
dog [14] = details: Sub-acute repeat dose toxicity; beagle; Oral; Gavage/Intubation; dose end: 14 day; group: systemic; systemic / in life observation / clinical signs / emesis + systemic / in life observation / clinical signs / salivation + systemic / in life…
rat [15] = details: Sub-acute repeat dose toxicity; Oral; Gavage/Intubation; dose end: 7 day; group: systemic; systemic / organ weight / adrenal gland / absolute + systemic / organ weight / liver / absolute + systemic / pathology microscopic / kidney…
mouse [16] = details: Sub-acute repeat dose toxicity; Oral; Feed; dose end: 14 day; group: systemic; systemic / in life observation / clinical signs / [other] + systemic / in life observation / clinical signs / anogenital staining + systemic…
mouse [17] = details: Chronic toxicity, Oral, Gavage/Intubation, dose end: 186 day, group: systemic
mouse [18] = details: Sub-acute repeat dose toxicity, Oral, Gavage/Intubation, dose end: 7 day, group: systemic
rat [19] = details: Sub-acute repeat dose toxicity; Oral; Feed; dose end: 14 day; group: systemic; systemic / in life observation / clinical signs / defecation + systemic / in life observation / clinical signs / hunched posture + systemic…
[20] = systemic / in life observation / clinical signs / alopecia + systemic / in life observation / clinical signs / scabbing + systemic / organ …
[21] = systemic / organ weight / liver / absolute + systemic / organ weight / liver / relative to body weight + systemic / pathology gross / lung…
[22] = group: developmental, systemic / in life observation / body weight / fetal weight
[23] = group: maternal, reproductive / reproductive performance / implantations / implantations + reproductive / reproductive performance / postimplantation loss / …
[24] = group: maternal, systemic / in life observation / body weight / body weight + systemic / in life observation / clinical signs / piloerection + systemic / in …
[25] = group: maternal, systemic / in life observation / body weight / body weight gain + systemic / in life observation / clinical signs / defecation + systemic / …
[26] = systemic / in life observation / clinical signs / defecation (diarrhea) + systemic / in life observation / clinical signs / soft stools
[27] = systemic / in life observation / clinical signs / defecation (diarrhea) + systemic / in life observation / clinical signs / soft stools + …
[28] = systemic / clinical chemistry / alanine aminotransferase (alt/sgpt) / alanine aminotransferase (alt/sgpt) + systemic / clinical chemistry / …
[29] = systemic / organ weight / liver / absolute + systemic / pathology microscopic / liver / hypertrophy
[30] = systemic / pathology microscopic / adrenal gland / hypertrophy + systemic / pathology microscopic / kidney / regeneration + systemic / …
[31] = systemic / clinical chemistry / alanine aminotransferase (alt/sgpt) / alanine aminotransferase (alt/sgpt) + systemic / pathology microscopic…
[32] = systemic / clinical chemistry / alkaline phosphatase (alp/alk) / alkaline phosphatase (alp/alk) + systemic / clinical chemistry / …
[33] = systemic / in life observation / body weight / body weight + systemic / in life observation / clinical signs / tachypnea + systemic / in …
[34] = systemic / clinical chemistry / bilirubin / total bilirubin + systemic / in life observation / body weight / body weight + systemic / organ …
[35] = systemic / clinical chemistry / cholesterol / cholesterol + systemic / pathology microscopic / liver / vacuolization + systemic / clinical …

CCc1c(C(=O)NN2CCCCC2)nn(-c2ccc(Cl)cc2Cl)c1-c1ccc(Br)cc1 [Surinabant]
LOAEL (mouse [1]; [20]): > 4000 mg/kg/day | NOAEL (mouse [1]; [20]): ≥ 4000 mg/kg/day | LEL (mouse [1]; [21]): 1000 mg/kg/day | NEL (mouse [1]; [21]): < 1000 mg/kg/day | LEL (rabbit [2]): 0.5 mg/kg/day | LOAEL (rabbit [2]): 2 mg/kg/day | NEL (rabbit [2]): < 0.5 mg/kg/day | NOAEL (rabbit [2]): 0.5 mg/kg/day | LEL (dog [3]): 10 mg/kg/day | LOAEL (dog [3]): 10 mg/kg/day | NEL (dog [3]): < 10 mg/kg/day | NOAEL (dog [3]): < 10 mg/kg/day | LEL (mouse [4]): 100 mg/kg/day | LOAEL (mouse [4]): > 1000 mg/kg/day | NEL (mouse [4]): < 100 mg/kg/day | NOAEL (mouse [4]): ≥ 1000 mg/kg/day | LEL (rat [5]; [22]): 100 mg/kg/day | LOAEL (rat [5]; [22]): 100 mg/kg/day | NEL (rat [5]; [22]): 10 mg/kg/day | NOAEL (rat [5]; [22]): 10 mg/kg/day | LOAEL (rat [5]; [23]): 100 mg/kg/day | NOAEL (rat [5]; [23]): 10 mg/kg/day | LEL (rat [5]; [24]): 10 mg/kg/day | NEL (rat [5]; [24]): < 10 mg/kg/day | LEL (rabbit [6]; [22]): 1 mg/kg/day | LOAEL (rabbit [6]; [22]): > 20 mg/kg/day | NEL (rabbit [6]; [22]): < 1 mg/kg/day | NOAEL (rabbit [6]; [22]): ≥ 20 mg/kg/day | LEL (rabbit [6]; [25]): 1 mg/kg/day | LOAEL (rabbit [6]; [25]): > 20 mg/kg/day | NEL (rabbit [6]; [25]): < 1 mg/kg/day | NOAEL (rabbit [6]; [25]): ≥ 20 mg/kg/day | LEL (dog [7]): 1 mg/kg/day | LOAEL (dog [7]): 1 mg/kg/day | NEL (dog [7]): < 1 mg/kg/day | NOAEL (dog [7]): < 1 mg/kg/day

CCc1nn(CCO)c(CC)c1Oc1cc(C#N)cc(C#N)c1 [Lersivirine]
LEL (dog [8]; [26]): 5 mg/kg/day | NEL (dog [8]; [26]): < 5 mg/kg/day | LOAEL (dog [8]; [27]): > 45 mg/kg/day | NOAEL (dog [8]; [27]): ≥ 45 mg/kg/day | LOAEL (mouse [9]; [28]): > 500 mg/kg/day | NOAEL (mouse [9]; [28]): ≥ 500 mg/kg/day | LEL (mouse [9]; [29]): 50 mg/kg/day | NEL (mouse [9]; [29]): < 50 mg/kg/day | LEL (rat [10]): 23 mg/kg/day | LOAEL (rat [10]): > 100 mg/kg/day | NEL (rat [10]): < 23 mg/kg/day | NOAEL (rat [10]): ≥ 100 mg/kg/day | LOAEL (rat [11]; [30]): > 150 mg/kg/day | NOAEL (rat [11]; [30]): ≥ 150 mg/kg/day | NEL (rat [11]; systemic / pathology microscopic / kidney / regeneration + systemic / pathology microscopic / adrenal gland / vacuolization + systemic / …): < 35 mg/kg/day | LOAEL (dog [12]; [31]): > 150 mg/kg/day | NOAEL (dog [12]; [31]): ≥ 150 mg/kg/day | LEL (dog [12]; [32]): 10 mg/kg/day | NEL (dog [12]; [32]): < 10 mg/kg/day | LOAEL (rabbit [13]; [33]): > 500 mg/kg/day | NEL (rabbit [13]; [33]): 20 mg/kg/day | NOAEL (rabbit [13]; [33]): ≥ 500 mg/kg/day | LEL (rabbit [13]; systemic / in life observation / clinical signs / tachypnea + systemic / in life observation / food consumption / food consumption): 200 mg/kg/day | LEL (dog [14]): 5 mg/kg/day | LOAEL (dog [14]): > 150 mg/kg/day | NEL (dog [14]): < 5 mg/kg/day | NOAEL (dog [14]): ≥ 150 mg/kg/day | LOAEL (rat [15]): > 35 mg/kg/day | NEL (rat [15]): < 35 mg/kg/day | NOAEL (rat [15]): ≥ 35 mg/kg/day | LOAEL (mouse [16]): > 3000 mg/kg/day | NEL (mouse [16]): 750 mg/kg/day | NOAEL (mouse [16]): ≥ 3000 mg/kg/day | LEL (mouse [17]; [32]): 70 mg/kg/day | NEL (mouse [17]; [32]): < 70 mg/kg/day | LOAEL (mouse [17]; [34]): > 700 mg/kg/day | NOAEL (mouse [17]; [34]): ≥ 700 mg/kg/day | LOAEL (mouse [18]; [35]): > 250 mg/kg/day | NOAEL (mouse [18]; [35]): ≥ 250 mg/kg/day | NEL (mouse [18]; [29]): < 35 mg/kg/day | LOAEL (rat [19]): > 1500 mg/kg/day | NEL (rat [19]): 750 mg/kg/day | NOAEL (rat [19]): ≥ 1500 mg/kg/day
